Reference: article PMC7036849, “Development of Coumarin-Based Hydroxamates as Histone Deacetylase Inhibitors with Antitumor Activities” (Molecules, 2020)

Experiments:
MDA-MB-231 cells [1] = test: Apoptosis analysis (annexin V, flow cytometry); details: 48 h
Method: Briefly, cell apoptosis analysis was measured by annexin V FITC/PI assay using Annexin v-PE/7-AAD Apoptosis Detection kit (BD). […] After 48 h, the drug-treated cells were washed three times with PBS; the cell suspension was collected and centrifuged; and the supernatant was removed.

H157 = test: SRB antiproliferative assay, H157; format: cell-based; details: Homo sapiens, NCI-H157, 48 h, read-out: IC50 H157
Method: Cancer cells (6 × 10^3 per well) were inoculated into 96-well plates. The treatment was carried out for 48 h, followed by SRB staining, and the absorption value was measured at 540 nm by a microplate reader. SAHA was used as a positive control, and the independent experiment was performed three times.

MDA-MB-231 cells [2] = test: Cell cycle arrest analysis (PI, flow cytometry); details: for cell cycle arrest: MDA-MB-231
Method: After 24 h of cell cycle treatment, the cells were washed three times with PBS, and the cell suspension was collected, centrifuged again, and then added to an ethanol fixative (70%) and placed in a refrigerator for overnight storage. After washing, the dye was added and stained with PI containing RNaseA solution for 30 min at 37 °C, and then analyzed by FACS.

MDA-MB-231 cells [3] = test: Colony formation assay; details: MDA-MB-231, seven days, compared with SAHA
Method: One week after the addition of the drugs, the medium was removed. The cells were then washed three times with PBS and fixed in methanol for 5 min. The cells were lastly stained with 1% crystal violet (Beyotime) for 15 min and washed with PBS. Images were collected using a scanning apparatus (Canon, Tokyo, Japan).

[4] = system: human lung epithelial cells (Beas-2B); test: Antiproliferative activity against normal cells, Beas-2B; format: cell-based; details: read-out: Antiproliferative IC50 Beas-2B
From the text: (§1) Two normal cell lines were selected: human lung epithelial cells (Beas-2B) and human liver epithelial cells (L-02).

acetyl-histone H4 = test: Western blot analysis, acetyl-histone H4; format: cell-based, human; details: MDA-MB-231, 1, 2 and 5 µM, 48 h
Method: (§2) Based on the aforementioned results, western blot analysis was further performed by immunoblotting assay (β-actin as the negative control).
(§3) Briefly, MDA-MB-231 cells were lysed in lysis buffer (50 mM Tris-HCl pH 8.0, 5 mM EDTA, 100 mM NaCl, 0.5% NP-40, 1 mM PMSF) and then centrifuged for 10 min at 12,000 r, and the insoluble debris was discarded. Cell lysates were further analyzed with SDS-PAGE and western blotting with indicated antibodies. After treatment with 13a and 13c for indicated times, cells were harvested with RIPA buffer (150 mM sodium chloride, 1% Triton X-100, 0.5% sodium deoxycholate, 0.1% SDS, 50 mM Tris and cocktails of protease and phosphatase inhibitors) for 10 min at room temperature and boiled for another 10 min. Equal amounts of total proteins (35 μg) underwent 15% SDS-PAGE and were electroblotted onto the polyvinylidene difluoride (PVDF) membrane. The membrane was blocked with 5% (w/v) fat-free dry milk in PBS-Tween 20 (PBST; 0.05%) for 1 h and incubated with primary antibody (1:1000 in PBST) at 4 °C overnight. […] The relative quantity of proteins was analyzed via the Image J software (NIH, Bethesda, MD, USA).
(§4) (B) Quantitative analysis. The relative levels of Ac-H3 and Ac-H4 used to control β-actin were determined by densimetric scanning.

acetyl-histone H3 = test: Western blot analysis, acetyl-histone H3; format: cell-based, human; details: MDA-MB-231, 1, 2 and 5 µM, 48 h
Method: as §2, §3, §4

[5] = system: human liver epithelial cells (L-02); test: Antiproliferative activity against normal cells, L-02; format: cell-based; details: Epithelial cell, read-out: Antiproliferative IC50 L-02
From the text: as §1

MDA-MB-231 = test: SRB antiproliferative assay, MDA-MB-231; format: cell-based; details: Homo sapiens, MDA-MB-231, 48 h, read-out: IC50 MDA-MB-231
Method: (§5) Cancer cells (6 × 10^3 per well) were inoculated into 96-well plates. The treatment was carried out for 48 h, followed by SRB staining, and the absorption value was measured at 540 nm by a microplate reader.

A549 = test: SRB antiproliferative assay, A549; format: cell-based; details: Homo sapiens, A549, 48 h, read-out: IC50 A549
Method: as §5

MCF-7 = test: SRB antiproliferative assay, MCF-7; format: cell-based; details: Homo sapiens, MCF7, 48 h, read-out: IC50 MCF-7
Method: as §5

solid tumor cell lines = test: Antiproliferative activity, summary over tumor cell lines; format: cell-based; details: Homo sapiens, read-out: IC50 values against solid tumor cell lines (range)
Method: as §5

HDAC1 = HDAC1 (Homo sapiens, UniProt Q13547); test: HDAC1 inhibitory assay (Boc-Lys(Ac)-AMC substrate); format: biochemical; details: n ≥ 3, SD <20% of the mean; read-out: IC50 against HDAC1
Chain of HDAC1 (Q13547 whole entry): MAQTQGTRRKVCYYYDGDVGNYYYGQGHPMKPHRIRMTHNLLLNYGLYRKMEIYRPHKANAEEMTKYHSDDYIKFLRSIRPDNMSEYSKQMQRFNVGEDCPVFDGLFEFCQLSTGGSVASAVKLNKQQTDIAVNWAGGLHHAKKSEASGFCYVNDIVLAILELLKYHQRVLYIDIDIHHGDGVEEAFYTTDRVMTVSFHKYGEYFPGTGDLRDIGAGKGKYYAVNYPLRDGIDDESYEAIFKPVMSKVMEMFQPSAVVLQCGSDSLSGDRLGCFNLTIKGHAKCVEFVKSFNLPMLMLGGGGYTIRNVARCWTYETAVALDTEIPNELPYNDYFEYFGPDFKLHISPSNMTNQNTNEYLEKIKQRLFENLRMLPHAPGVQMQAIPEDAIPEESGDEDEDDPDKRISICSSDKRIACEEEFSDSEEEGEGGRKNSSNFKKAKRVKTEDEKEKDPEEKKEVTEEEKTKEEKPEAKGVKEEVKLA
Method: The enzyme inhibitory assay was conducted by Shanghai ChemPartner Corporation (Shanghai, China). […] Then the lysine developer was added to terminate the reaction, and the samples were further incubated at 37 °C for 30 min. […] Three independent experiments with triplicate were carried out.

O=C(CCCCCCC(=O)Nc1ccccc1)NO [Compound 1, vorinostat, reference compound]
cell apoptosis (MDA-MB-231 cells [1]; MDA-MB-231, 1 µM): 7.3%
cell apoptosis (MDA-MB-231 cells [1]; MDA-MB-231, 2 µM): 12.6%
IC50 (H157): 1.66 ± 0.14 µM
cells in G2/M phase (MDA-MB-231 cells [2]; MDA-MB-231, 1 μM, 24 h): 11.02%

CCCOc1ccc2c(OCCCCCCCC(=O)NO)cc(=O)oc2c1 [Compound 13a, N-Hydroxy-8-((2-oxo-7-propoxy-2H-benzopyran-4-yl)oxy)octanoic acid]
inhibition of colony formation (MDA-MB-231 cells [3]): significant inhibition of the colony formation more potently than SAHA
IC50 [4]: > 50 µM
acetylation level of histone H4 (acetyl-histone H4): increased the acetylation levels of histone H3 and H4 in a clearly dose-dependent manner
cell apoptosis (MDA-MB-231 cells [1]; MDA-MB-231, 1 µM): 13.24%
cell apoptosis (MDA-MB-231 cells [1]; MDA-MB-231, 2 µM): 18.01%
IC50 (H157): 1.04 ± 0.08 µM
acetylation level of histone H3 (acetyl-histone H3): increased the acetylation levels of histone H3 and H4 in a clearly dose-dependent manner
IC50 [5]: > 50 µM
cell cycle arrest (MDA-MB-231 cells [2]): arrested MDA-MB-231 cells in a dose-dependent manner

CCCCOc1ccc2c(OCCCCCCCC(=O)NO)cc(=O)oc2c1 [Compound 13b, N-Hydroxy-8-((7-butoxy-2-oxo-2H-benzopyran-4-yl)oxy)octanoic acid]
IC50 [4]: > 50 µM
IC50 (MDA-MB-231): 1.97 ± 0.56 µM
IC50 (H157): 1.2 ± 0.17 µM
IC50 [5]: > 20 µM
IC50 (A549): 4.09 ± 1.54 µM
IC50 (MCF-7): 2.93 ± 0.49 µM

COCCOc1ccc2c(OCCCCCCCC(=O)NO)cc(=O)oc2c1 [Compound 13c, N-Hydroxy-8-((7-(2-methoxyethoxy)-2-oxo-2H-chromen-4-yl)oxy)octanoic acid]
inhibition of colony formation (MDA-MB-231 cells [3]): significant inhibition of the colony formation more potently than SAHA
IC50 [4]: > 100 µM
acetylation level of histone H4 (acetyl-histone H4): increased the acetylation levels of histone H3 and H4 in a clearly dose-dependent manner
cell apoptosis (MDA-MB-231 cells [1]; MDA-MB-231, 1 µM): 19.26%
cell apoptosis (MDA-MB-231 cells [1]; MDA-MB-231, 2 µM): 25.14%
IC50 (H157): 0.59 ± 0.03 µM
acetylation level of histone H3 (acetyl-histone H3): increased the acetylation levels of histone H3 and H4 in a clearly dose-dependent manner
IC50 [5]: > 100 µM
IC50 (solid tumor cell lines): 0.36 to 2.91 µM
cell cycle arrest (MDA-MB-231 cells [2]): arrested MDA-MB-231 cells in a dose-dependent manner

COCCCOc1ccc2c(OCCCCCCCC(=O)NO)cc(=O)oc2c1 [Compound 13d, N-Hydroxy-8-((7-(3-methoxypropoxy)-2-oxo-2H-chromen-4-yl)oxy)octanoic acid]
IC50 [4]: > 20 µM
IC50 (MDA-MB-231): 1.7 ± 0.39 µM
IC50 (H157): 2.36 ± 0.5 µM
IC50 [5]: > 20 µM
IC50 (A549): 4.11 ± 0.65 µM
IC50 (MCF-7): 5.23 ± 1.63 µM

O=C(CCCCCCCOc1cc(=O)oc2cc(OCC3CCCCC3)ccc12)NO [Compound 13g]
IC50 (HDAC1): 0.00501 µM

O=C(CCCCCCCOc1cc(=O)oc2cc(OCc3ccccc3[N+](=O)[O-])ccc12)NO [Compound 14b, N-Hydroxy-8-((7-((2-nitrobenzyl)oxy)-2-oxo-2H-chromen-4-yl)oxy)octanoic acid]
IC50 (HDAC1): 0.00159 µM

O=C(CCCCCCCOc1cc(=O)oc2cc(OCc3cccc([N+](=O)[O-])c3)ccc12)NO [Compound 14c, N-Hydroxy-8-((7-((3-nitrobenzyl)oxy)-2-oxo-2H-chromen-4-yl)oxy)octanoic acid]
IC50 (HDAC1): 0.00197 µM

O=C(CCCCCCCOc1cc(=O)oc2cc(OCc3ccc([N+](=O)[O-])cc3)ccc12)NO [Compound 14d, N-Hydroxy-8-((7-((4-nitrobenzyl)oxy)2-oxo-2H-chromen-4-yl)oxy)octanoic acid]
IC50 (HDAC1): 0.00172 µM

O=C(CCCCCCCOc1cc(=O)oc2cc(OCc3ccccc3Cl)ccc12)NO [Compound 14h, N-Hydroxy-8-((7-((2-chlorobenzyl)oxy)-2-oxo-2H-chromen-4-yl)oxy)octanoic acid]
IC50 (HDAC1): 0.0024 µM

O=C(CCCCCCCOc1cc(=O)oc2cc(OCc3cccc(Cl)c3)ccc12)NO [Compound 14i, N-Hydroxy-8-((7-((3-chlorobenzyl)oxy)-2-oxo-2H-chromen-4-yl)oxy)octanoic acid]
IC50 (HDAC1): 0.00425 µM

O=C(CCCCCCCOc1cc(=O)oc2cc(OCc3ccc(Cl)cc3)ccc12)NO [Compound 14j, N-Hydroxy-8-((7-((4-chlorobenzyl)oxy)-2-oxo-2H-chromen-4-yl)oxy)octanoic acid]
IC50 (HDAC1): 0.00252 µM

O=C(CCCCCCCOc1cc(=O)oc2cc(OCc3ccc(Br)cc3)ccc12)NO [Compound 14k, N-Hydroxy-8-((7-((4-bromobenzyl)oxy)2-oxo-2H-chromen-4-yl)oxy)octanoic acid]
IC50 (HDAC1): 0.00302 µM

O=C(CCCCCCCOc1cc(=O)oc2cc(OCc3ccc(C(F)(F)F)cc3)ccc12)NO [Compound 14l]
IC50 (HDAC1): 0.0055 µM

O=C(CCCCCCCOc1cc(=O)oc2cc(OCc3c(F)cccc3F)ccc12)NO [Compound 14m, N-Hydroxy-8-((7-((2,6-difluorobenzyl)oxy)2-oxo-2H-chromen-4-yl)oxy)octanoic acid]
IC50 (MDA-MB-231): 1.95 ± 0.29 µM
IC50 (H157): 4.81 ± 0.8 µM
IC50 (A549): 7.58 ± 2.05 µM
IC50 (MCF-7): 6.05 ± 1.33 µM

O=C(CCCCCCCOc1cc(=O)oc2cc(OCc3ccc(F)cc3Cl)ccc12)NO [Compound 14o, N-Hydroxy-8-((7-((2-chloro-4-fluorobenzyl)oxy)2-oxo-2H-chromen-4-yl)oxy)octanoic acid]
IC50 (HDAC1): 0.00322 µM

Cc1ccccc1COc1ccc2c(OCCCCCCCC(=O)NO)cc(=O)oc2c1 [Compound 14p, N-Hydroxy-8-((7-((2-methylbenzyl)oxy)-2-oxo-2H-chromen-4-yl)oxy)octanoic acid]
IC50 (HDAC1): 0.00156 µM

Cc1cccc(COc2ccc3c(OCCCCCCCC(=O)NO)cc(=O)oc3c2)c1 [Compound 14q, N-Hydroxy-8-((7-((3-methylbenzyl)oxy)-2-oxo-2H-chromen-4-yl)oxy)octanoic acid]
IC50 (HDAC1): 0.00295 µM

Cc1ccc(COc2ccc3c(OCCCCCCCC(=O)NO)cc(=O)oc3c2)cc1 [Compound 14r, N-Hydroxy-8-((7-((4-methylbenzyl)oxy)2-oxo-2H-chromen-4-yl)oxy)octanoic acid]
IC50 (HDAC1): 0.0025 µM

Cc1cccc(C)c1COc1ccc2c(OCCCCCCCC(=O)NO)cc(=O)oc2c1 [Compound 14s, N-Hydroxy-8-((7-((2,6-dimethylbenzyl)oxy)-2-oxo-2H-chromen-4-yl)oxy)octanoic acid]
IC50 (HDAC1): 0.00519 µM
